Experimental data taken from PMC12155096 (International Journal of Molecular Sciences, 2025).

Legend:
CYP3A4 = CYP3A4 (Homo sapiens, UniProt P08684); experiment: biochemical; conditions: CYP3A4 AC50 (half-maximal activity concentration)
human CYP2C9 = human CYP2C9 (Homo sapiens, UniProt P11712); experiment: biochemical; conditions: CYP2C9 AC50 (half-maximal activity concentration)
human CYP2C19 [1] = molecular target: T1, human CYP2C19 (Homo sapiens, UniProt P33261); experiment: biochemical; conditions: CYP2C19 AC50 (half-maximal activity concentration)
human CYP2D6 = human CYP2D6 (Homo sapiens, UniProt P10635); experiment: biochemical; conditions: CYP2D6 AC50 (half-maximal activity concentration)
human CYP1A2 [2] = molecular target: T2, human CYP1A2 (Homo sapiens, UniProt P05177); experiment: biochemical; conditions: CYP1A2 AC50 (half-maximal activity concentration)
T2 sequence (P05177 1-516): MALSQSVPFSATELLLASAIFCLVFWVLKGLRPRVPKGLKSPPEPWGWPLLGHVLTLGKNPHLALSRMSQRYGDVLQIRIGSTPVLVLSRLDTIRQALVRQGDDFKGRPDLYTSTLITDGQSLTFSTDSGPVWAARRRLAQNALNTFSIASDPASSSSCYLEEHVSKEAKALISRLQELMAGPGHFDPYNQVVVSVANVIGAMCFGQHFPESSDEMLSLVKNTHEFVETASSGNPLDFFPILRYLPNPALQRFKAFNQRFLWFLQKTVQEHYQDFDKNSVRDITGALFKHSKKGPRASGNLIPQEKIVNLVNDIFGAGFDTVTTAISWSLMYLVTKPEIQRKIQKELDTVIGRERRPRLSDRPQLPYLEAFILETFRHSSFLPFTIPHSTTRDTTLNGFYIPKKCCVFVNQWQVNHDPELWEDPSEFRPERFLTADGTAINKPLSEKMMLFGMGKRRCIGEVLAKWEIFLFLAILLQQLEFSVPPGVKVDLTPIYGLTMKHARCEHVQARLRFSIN

human CYP2C19 [3] = molecular target: T1, human CYP2C19
human CYP1A2 [4] = molecular target: T2, human CYP1A2

human CYP2C9, sequence (P11712 whole entry): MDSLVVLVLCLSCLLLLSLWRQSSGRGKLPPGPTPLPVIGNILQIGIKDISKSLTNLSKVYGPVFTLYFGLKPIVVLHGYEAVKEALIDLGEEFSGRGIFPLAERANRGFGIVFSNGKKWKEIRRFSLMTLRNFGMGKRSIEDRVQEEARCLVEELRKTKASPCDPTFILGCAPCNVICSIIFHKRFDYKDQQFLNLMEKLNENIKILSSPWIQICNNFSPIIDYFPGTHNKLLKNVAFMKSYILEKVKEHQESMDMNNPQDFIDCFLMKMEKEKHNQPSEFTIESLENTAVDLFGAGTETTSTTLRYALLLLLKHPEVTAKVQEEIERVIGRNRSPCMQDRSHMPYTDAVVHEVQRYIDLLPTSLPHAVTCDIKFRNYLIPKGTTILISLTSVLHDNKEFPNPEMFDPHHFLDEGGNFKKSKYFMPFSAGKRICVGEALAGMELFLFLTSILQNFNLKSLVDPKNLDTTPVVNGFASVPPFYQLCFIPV
T1 sequence (P33261 whole entry): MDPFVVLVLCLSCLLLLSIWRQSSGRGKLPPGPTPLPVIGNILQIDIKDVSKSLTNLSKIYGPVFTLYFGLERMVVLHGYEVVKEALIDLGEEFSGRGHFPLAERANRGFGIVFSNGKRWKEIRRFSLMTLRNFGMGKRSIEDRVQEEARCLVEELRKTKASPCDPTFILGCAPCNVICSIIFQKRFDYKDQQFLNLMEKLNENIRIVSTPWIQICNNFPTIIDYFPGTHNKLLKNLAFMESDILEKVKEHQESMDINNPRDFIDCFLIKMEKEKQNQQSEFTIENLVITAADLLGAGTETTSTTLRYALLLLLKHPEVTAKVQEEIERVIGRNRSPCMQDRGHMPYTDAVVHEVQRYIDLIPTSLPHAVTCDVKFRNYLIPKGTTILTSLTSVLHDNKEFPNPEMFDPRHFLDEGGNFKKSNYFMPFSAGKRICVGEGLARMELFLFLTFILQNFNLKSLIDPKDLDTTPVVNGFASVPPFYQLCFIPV
CYP3A4, sequence (P08684 whole entry): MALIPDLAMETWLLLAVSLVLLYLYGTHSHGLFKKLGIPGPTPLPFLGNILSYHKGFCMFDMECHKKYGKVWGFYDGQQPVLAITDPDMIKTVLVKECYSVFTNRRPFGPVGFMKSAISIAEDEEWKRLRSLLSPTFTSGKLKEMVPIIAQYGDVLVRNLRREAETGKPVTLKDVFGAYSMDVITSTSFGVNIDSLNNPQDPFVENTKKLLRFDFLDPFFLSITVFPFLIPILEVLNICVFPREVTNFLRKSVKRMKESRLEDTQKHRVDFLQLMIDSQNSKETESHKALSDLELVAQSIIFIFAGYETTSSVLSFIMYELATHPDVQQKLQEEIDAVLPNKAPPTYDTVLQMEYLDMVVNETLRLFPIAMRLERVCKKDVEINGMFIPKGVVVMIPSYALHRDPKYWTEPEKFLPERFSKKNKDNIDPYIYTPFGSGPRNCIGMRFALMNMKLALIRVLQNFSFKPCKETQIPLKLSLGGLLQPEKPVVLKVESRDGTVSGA
human CYP2D6, sequence (P10635 whole entry): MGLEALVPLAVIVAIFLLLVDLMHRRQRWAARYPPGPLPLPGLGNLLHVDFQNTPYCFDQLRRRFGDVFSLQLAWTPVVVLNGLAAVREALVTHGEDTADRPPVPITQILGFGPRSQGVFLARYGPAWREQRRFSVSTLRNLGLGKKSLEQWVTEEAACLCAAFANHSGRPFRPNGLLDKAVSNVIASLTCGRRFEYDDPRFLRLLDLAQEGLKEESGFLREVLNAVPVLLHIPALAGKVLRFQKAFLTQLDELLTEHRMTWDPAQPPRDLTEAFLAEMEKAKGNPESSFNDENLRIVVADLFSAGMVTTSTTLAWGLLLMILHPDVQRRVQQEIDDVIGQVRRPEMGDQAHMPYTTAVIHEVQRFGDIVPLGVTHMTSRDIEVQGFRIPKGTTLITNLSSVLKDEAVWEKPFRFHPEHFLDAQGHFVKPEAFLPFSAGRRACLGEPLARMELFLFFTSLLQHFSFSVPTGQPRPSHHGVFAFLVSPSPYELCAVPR

Compound | AC50 (CYP3A4) [µM] | AC50 (human CYP2C9) [µM] | AC50 (human CYP2C19 [1]) [µM] | AC50 (human CYP2D6) [µM] | AC50 (human CYP1A2 [2]) [µM] | CYP2C19 AC50 (half-maximal activity concentration) (human CYP2C19 [3]) | CYP1A2 AC50 (half-maximal activity concentration) (human CYP1A2 [4])
O=C(C(=O)c1ccccc1)c1ccccc1 [1,2-Diphenylethanedione] | 35.4 | 1.13 | 14.8 | 29.4 | 12.1 | – | –
O=C(Cl)c1cccc(C(=O)Cl)c1 [1,3-Benzenedicarbonyl dichloride] | 26.8 | 68.7 | – | 24.9 | – | Inactive | Inactive
ClC(Cl)(Cl)c1ccc(C(Cl)(Cl)Cl)cc1 [1,4-Bis(trichloromethyl)benzene] | 45.9 | 34.2 | – | 58.6 | 5.66 | Inconclusive inhibitor | –
Oc1c(Br)cc(Br)cc1Br [2,4,6-Tribromophenol] | 72.8 | 38.5 | – | 68.4 | 51.7 | Inconclusive inhibitor | –
Oc1c(I)cc(I)cc1I [2,4,6-Triiodophenol] | 63.5 | 41.2 | 61.9 | 80.7 | 37.2 | – | –
O=C(O)c1cc(Cl)cc(Cl)c1 [3,5-Dichlorobenzoic acid] | 55.5 | 58.9 | – | 27.8 | 57.8 | Inconclusive inhibitor | –
Cc1ccc(C(=O)c2ccccc2)cc1 [4-Methylbenzophenone] | 16 | 34.3 | 13.3 | 46.2 | 34.3 | – | –
O=C(CCCN1CCN(c2ccccn2)CC1)c1ccc(F)cc1 [Azaperone] | 5.97 | 5.25 | 32.7 | 12.4 | – | – | Inactive
O=C(c1ccccc1)C(O)c1ccccc1 (centres unmarked) [Benzoin] | 22.8 | 2.27 | 15.8 | 36.7 | 22.6 | – | –
c1ccc(CSCc2ccccc2)cc1 [Benzyl sulfide] | 7.5 | 29.8 | 5.94 | 61.9 | 27.3 | – | –
O=c1[nH]c2ccc([S+]([O-])CCN3CCC(Cc4ccc(F)cc4)CC3)cc2o1 (centres unmarked) [Besonprodil] | 21.5 | 6.44 | 50.9 | 33 | – | – | Inactive
COC(=O)c1cc(Oc2ccc(Cl)cc2Cl)ccc1[N+](=O)[O-] [Bifenox] | 5.23 | 7.1 | 2.45 | 25.3 | 20.4 | – | –
CCCCC(CC)COP(=O)(O)OCC(CC)CCCC (centres unmarked) [Bis(2-ethylhexyl) phosphate] | 37.6 | 16.5 | 40.6 | 56.6 | 82.9 | – | –
O=C1C=CC(=O)N1c1ccc(Cc2ccc(N3C(=O)C=CC3=O)cc2)cc1 [Bismaleimide] | 56.6 | 4.93 | 8.29 | 43.6 | 23.9 | – | –
CCCCCCCC(=O)Oc1c(Br)cc(C#N)cc1Br [Bromoxynil octanoate] | 15.4 | 34.5 | 32.5 | 85.8 | 15 | – | –
C#CC(C)N(C)C(=O)Nc1ccc(Cl)cc1 (centres unmarked) [Buturon] | 9.33 | 22.8 | 8.68 | 55.3 | 5.47 | – | –
